In DBAASP:
Values after ≈ are worked out from the molar mass of the structure shown. Each block holds one compound with its values, some of them ahead of it.

Legend:
Experiment in all cases: ≥ marks a high value that may be exact or a test limit, other limits are often not marked, values filed in µg/mL are converted to µM
[1] = test system: Streptococcus sanguinis ATCC 10556
[2] = test system: Streptococcus oralis ATCC 9811
[3] = test system: Streptococcus gordonii ATCC 10558
[4] = test system: Aspergillus niger ATCC 16404
[5] = test system: Klebsiella pneumoniae ATCC 700603
[6] = test system: Escherichia coli ATCC 23506
[7] = test system: Candida albicans ATCC 10231
[8] = test system: Staphylococcus aureus ATCC 25923
[9] = test system: Candida glabrata ATCC 15126
[10] = test system: Staphylococcus aureus ATCC 9144
[11] = test system: Streptococcus pneumoniae ATCC 49619
[12] = test system: Enterococcus faecalis PCM 2673
[13] = test system: Pseudomonas aeruginosa ATCC 9027
[14] = test system: Escherichia coli ATCC 25922
[15] = test system: Salmonella typhimurium KCTC 1926
[16] = test system: Pseudomonas aeruginosa KCTC 1637
Enterococcus faecalis = test system: Enterococcus faecalis
Enterococcus faecium VR = test system: Enterococcus faecium VR
[17] = test system: Staphylococcus epidermidis KCTC 1917
Staphylococcus aureus MR = test system: Staphylococcus aureus MR
Enterococcus faecium = test system: Enterococcus faecium
[18] = test system: Escherichia coli KCTC 1682
[19] = test system: Bacillus subtilis KCTC 3068
Enterococcus faecalis VR = test system: Enterococcus faecalis VR
[20] = test system: Staphylococcus aureus KCTC 1621
[21] = test system: Bacillus cereus ATCC 11778
[22] = test system: Staphylococcus aureus ATCC 29213
[23] = test system: Salmonella enterica subsp. enterica serovar Enteritidis ATCC 13076
[24] = test system: Streptococcus pyogenes ATCC 19615
[25] = test system: Serratia marcescens ATCC 21202
[26] = test system: Pseudomonas aeruginosa ATCC 27853
Streptococcus pneumoniae = test system: Streptococcus pneumoniae
Staphylococcus aureus = test system: Staphylococcus aureus
Citrobacter sp. = test system: Citrobacter sp.
[27] = test system: Acinetobacter baumannii ATCC 15308
Klebsiella pneumoniae = test system: Klebsiella pneumoniae
Enterobacter cloacae = test system: Enterobacter cloacae
[28] = test system: Pseudomonas aeruginosa ATCC 15442
[29] = test system: Bacillus subtilis CMCC 63501
Escherichia coli EC183 = test system: Escherichia coli EC183
Escherichia coli UB1005 = test system: Escherichia coli UB1005
[30] = test system: Staphylococcus epidermidis ATCC 12228
Candida albicans CA2761 = test system: Candida albicans CA2761
[31] = test system: Candida krusei CGMCC 2.1857
[32] = test system: Candida albicans CGMCC 2.2086
[33] = test system: Salmonella enterica subsp. enterica serovar Typhimurium C77-31
[34] = test system: Candida tropicalis CGMCC 2.1975

Structure (SMILES): CC(C)C[C@H](NC(=O)[C@H](CC(C)C)NC(=O)[C@H](CS)NC(=O)[C@H](Cc1cnc[nH]1)NC(=O)[C@H](C)NC(=O)[C@H](C)N)C(=O)N[C@@H](CCCN=C(N)N)C(=O)NCC(=O)N[C@@H](CC(N)=O)C(=O)N[C@@H](CCCN=C(N)N)C(N)=O [AAHCLLRGNR]
MIC [15]: 30 µM
MIC [16]: 30 µM
MIC (Enterococcus faecalis): 30 µM
MIC (Enterococcus faecium VR): 30 µM
MIC [17]: 15 µM
MIC (Staphylococcus aureus MR): 30 µM
MIC (Enterococcus faecium): 30 µM
MIC [18]: 15 µM
MIC [19]: 30 µM
MIC (Enterococcus faecalis VR): 30 µM
MIC [20]: 30 µM

Structure (SMILES): CC[C@H](C)[C@H](NC(=O)[C@H](CC(C)C)NC(=O)CNC(=O)CNC(=O)[C@H](CC(C)C)NC(=O)[C@@H](N)Cc1ccccc1)C(=O)N[C@@H](CCCCN)C(=O)N[C@@H](Cc1c[nH]c2ccccc12)C(=O)N[C@@H](Cc1c[nH]c2ccccc12)C(=O)N1CCC[C@H]1C(=O)N[C@@H](Cc1c[nH]c2ccccc12)C(=O)N[C@@H](CCCN=C(N)N)C(=O)N[C@@H](CCCN=C(N)N)C(N)=O [FLGGLIKWWPWRR]
MIC (Streptococcus pneumoniae): 4.55 µM (≈ 7.81 µg/mL)
MIC (Staphylococcus aureus): 4.55 µM (≈ 7.81 µg/mL)
MIC (Citrobacter sp.): ≥ 146 µM
MIC [27]: 18.2 µM (≈ 31.2 µg/mL)
MIC [8]: 4.55 µM (≈ 7.81 µg/mL)
MIC (Klebsiella pneumoniae): > 146 µM
MIC [14]: 4.55 µM (≈ 7.81 µg/mL)
MIC (Enterobacter cloacae): ≥ 146 µM
MIC [28]: 18.2 µM (≈ 31.2 µg/mL)

Structure (SMILES): CC[C@H](C)[C@H](NC(=O)[C@H](Cc1c[nH]c2ccccc12)NC(=O)[C@H](CCCCN)NC(=O)[C@H](CC(C)C)NC(=O)[C@@H](NC(=O)[C@H](CCCCN)NC(=O)CNC(=O)[C@@H](NC(=O)[C@H](CCCCN)NC(=O)[C@H](CCCCN)NC(=O)[C@H](CC(C)C)NC(=O)[C@H](CCCN=C(N)N)NC(=O)[C@H](CCCCN)NC(=O)[C@H](CCCN=C(N)N)NC(=O)[C@@H](N)[C@@H](C)O)[C@@H](C)CC)C(C)C)C(N)=O [TRKRLKKIGKVLKWI]
MIC [29]: 2 µM (≈ 3.73 µg/mL)
MIC (Escherichia coli EC183): 2 µM (≈ 3.73 µg/mL)
MIC (Escherichia coli UB1005): 4 µM (≈ 7.47 µg/mL)
MIC [30]: 32 µM (≈ 59.7 µg/mL)
MIC (Candida albicans CA2761): ≥ 128 µM
MIC [22]: 32 µM (≈ 59.7 µg/mL)
MIC [31]: 8 µM (≈ 14.9 µg/mL)
MIC [32]: ≥ 64 µM
MIC [33]: 8 µM (≈ 14.9 µg/mL)
MIC [34]: 2 µM (≈ 3.73 µg/mL)
MIC [8]: 32 µM (≈ 59.7 µg/mL)
MIC [14]: 8 µM (≈ 14.9 µg/mL)

Second part, the compound after the results:

MIC [1]: ≥ 186 µM
MIC [2]: ≥ 155 µM
MIC [3]: ≥ 186 µM
Structure (SMILES): CC[C@H](C)[C@H](NC(=O)CNC(=O)CNC(=O)CNC(=O)CNC(=O)[C@H](Cc1c[nH]c2ccccc12)NC(=O)[C@@H](NC(=O)[C@H](Cc1cnc[nH]1)NC(=O)[C@H](CCSC)NC(=O)CNC(=O)[C@@H]1CCCN1C(=O)[C@H](C)NC(=O)[C@H](CC(=O)O)NC(=O)[C@@H]1CCCN1C(=O)[C@H](CC(C)C)NC(=O)[C@H](CCCCN)NC(=O)[C@@H](N)CCCN=C(N)N)[C@@H](C)O)C(=O)N[C@@H](CC(N)=O)C(=O)N[C@H](C(=O)N[C@@H](CC(C)C)C(=O)N[C@@H](CCC(N)=O)C(=O)N[C@@H](CCCCN)C(=O)N[C@@H](Cc1ccc(O)cc1)C(=O)N[C@@H](Cc1ccc(O)cc1)C(=O)N[C@@H](CS)C(=O)N[C@@H](CCCN=C(N)N)C(=O)N[C@H](C(=O)N[C@@H](CCCN=C(N)N)C(=O)NCC(=O)O)C(C)C)[C@@H](C)O [RKLPDAPGMHTWGGGGINTLQKYYCRVRG]

MIC [4]: 12.9 µM (≈ 32 µg/mL)
MIC [5]: 0.101 µM (≈ 0.25 µg/mL)
MIC [6]: 0.807 µM (≈ 2 µg/mL)
MIC [7]: 103 µM (≈ 256 µg/mL)
MIC [8]: 51.7 µM (≈ 128 µg/mL)
MIC [9]: ≥ 51.7 µM
MIC [10]: 25.8 µM (≈ 64 µg/mL)
MIC [11]: 1.61 µM (≈ 4 µg/mL)
MIC [12]: 25.8 µM (≈ 64 µg/mL)
MIC [13]: 0.807 µM (≈ 2 µg/mL)
MIC [14]: 3.23 µM (≈ 8 µg/mL)
Structure (SMILES): CC[C@H](C)[C@H](NC(=O)CNC(=O)[C@H](CCCCN)NC(=O)[C@H](Cc1ccccc1)NC(=O)[C@H](CC(C)C)NC(=O)[C@H](CCCCN)NC(=O)[C@H](CCCCN)NC(=O)[C@H](C)NC(=O)[C@H](CCCCN)NC(=O)[C@H](CCCCN)NC(=O)[C@H](Cc1ccccc1)NC(=O)CNC(=O)[C@H](CCCCN)NC(=O)[C@H](C)NC(=O)[C@H](Cc1ccccc1)NC(=O)[C@@H](NC(=O)[C@H](CCCCN)NC(=O)[C@@H](NC(=O)[C@H](CC(C)C)NC(=O)[C@H](CCCCN)NC(=O)[C@@H](N)CCCCN)[C@@H](C)CC)C(C)C)C(=O)NCC(N)=O [KKLIKVFAKGFKKAKKLFKGIG]

MIC [21]: 17.8 µM (≈ 53.4 µg/mL)
MIC [22]: 9.35 µM (≈ 28 µg/mL)
MIC [5]: 9.35 µM (≈ 28 µg/mL)
MIC [23]: 17.8 µM (≈ 53.4 µg/mL)
MIC [24]: 17.8 µM (≈ 53.4 µg/mL)
MIC [25]: 9.35 µM (≈ 28 µg/mL)
MIC [26]: > 33.3 µM
MIC [14]: 9.35 µM (≈ 28 µg/mL)
Structure (SMILES): CC[C@H](C)[C@H](NC(=O)[C@H](CC(=O)O)NC(=O)[C@H](CCSC)NC(=O)[C@H](CC(C)C)NC(=O)CN)C(=O)N[C@@H](Cc1ccccc1)C(=O)N[C@@H](CCCCN)C(=O)N[C@H](C(=O)N[C@@H](C)C(=O)N[C@H](C(=O)N[C@@H](CC(N)=O)C(=O)N[C@@H](CCCCN)C(=O)N[C@@H](CC(C)C)C(=O)N[C@@H](CC(C)C)C(=O)N[C@@H](C)C(=O)N[C@@H](C)C(=O)NCC(=O)N[C@@H](CCSC)C(=O)N[C@@H](CC(N)=O)C(=O)N[C@@H](CCCCN)C(=O)N1CCC[C@H]1C(=O)N[C@@H](CCCN=C(N)N)C(=O)N[C@H]1CSSC[C@@H](C(=O)O)NC(=O)[C@H](Cc2cnc[nH]2)NC(=O)[C@H](C)NC(=O)[C@H](C)NC(=O)[C@H](CCCCN)NC1=O)C(C)C)C(C)C [GLMDIFKVAVNKLLAAGMNKPRCKAAHC]
